Measured values: patent US20190262266A1, “FORMULATIONS” (OXY SOLUTIONS AS, priority 2016, published 2019)
“Also recorded” adds a separate entry of the source. Read-outs that look alike come from different tables or passages of the source.

Key:
human skin fibroblasts [1] = experiment: Reactive oxygen species (ROS) production in human skin fibroblasts (DCFDA); conditions: 30 min; for ROS, relative fluorescence (×10^3): 5% FBS; for ROS production compared to control: DO 21-35 mg/L, 5% FBS (5% or 10% FBS), control 8.6 mg/L
Protocol: (§1) Oxygenated medium was prepared using powder cell medium, diluted with Oxy Water prepared according to Example 5. The mixing ratio depended on the desired concentration of dissolved oxygen in the final cell medium. DMEM or DMEM medium without phenol red was used (Sigma Aldrich). The medium was supplied with additives and FBS. The phenol red free cell medium was used for the ROS experiment to avoid disturbance of the fluorescent readings.
HSFs were seeded at a density of 2.5×10^4 cells/0.32 cm^2 and were grown to confluence overnight. The cells were stained with 20 uM DCFDA solution (2′,7′-dichlorofluorescin diacetate) (DCFDA Cellular ROS Detection Assay Kit, Abcam, Cambridge, UK) and incubated for 45 min at 37° C. protected from light exposure. Control cell medium (5% FBS, dissolved oxygen: 8.6 mg/L), oxygenated cell medium (5% FBS, dissolved oxygen: 21.6, 26.5, 34.9 mg/L) and positive control (500 μM H2O2, 5% FBS, dissolved oxygen: 8.6 mg/L) were added. The cells were incubated at room temperature. The fluorescence was read with an FLx800 plate reader (BioTek, Winooski, USA) with excitation wavelength at 485 nm and emission wavelength 520 nm, 30 min after adding the treatments. The values were corrected for blank readings and presented as relative fluorescence (×10^3). The experiments were repeated using 10% FBS.

human skin fibroblasts [2] = conditions: DO up to 50 mg/L, DMEM w/1% FBS, control 11 mg/L; for cell viability / number of dead cells compared to control: 4 days; for proliferation compared to control: up to 4 days
Protocol: as §1
HSFs were seeded at a density of 5×10^4 cells/25 cm^2 and left overnight. The cells were treated with control cell medium (1% FBS, dissolved oxygen: 11 mg/L), oxygenated cell medium (1% FBS, dissolved oxygen: 23, 31, 41, 50 mg/L), or 10% FBS, dissolved oxygen: 10 mg/L. After stimulation, the cells were left at room temperature for 30 min, followed by incubation at 37° C. The treatment was repeated every 24 hours up to 4 days. On day 2, 3 and 4 the cells were harvested; the cell suspension was mixed with trypan blue and live cells were manually counted using a hemocytometer and dead cells were counted using a TC20 Automated cell counter (BioRad, USA). 1% Triton X was used as a positive control for cell death.

human skin fibroblasts [3] = test system: human skin fibroblasts
Protocol: as §1

## O=O [dissolved oxygen]
Human skin fibroblasts [1]; 21.6 mg/L dissolved oxygen
  ROS, relative fluorescence (×10^3): 9.3±3.4
Human skin fibroblasts [1]; 26.5 mg/L dissolved oxygen
  ROS, relative fluorescence (×10^3): 15.2±4.5
Human skin fibroblasts [1]; 34.9 mg/L dissolved oxygen
  ROS, relative fluorescence (×10^3): 8.9±2.9
Human skin fibroblasts [1]
  ROS production compared to control: did not significantly change; also recorded: no significant increase
Human skin fibroblasts [1]; listed as DO
  ROS production compared to control: no significant differences
Human skin fibroblasts [2]
  cell viability / number of dead cells compared to control: nor did it change the level of cell viability
  proliferation compared to control: did not change cell proliferation
Human skin fibroblasts [2]; listed as DO
  cell viability / number of dead cells compared to control: did not significantly alter the number of dead cells
  proliferation compared to control: did not significantly alter the proliferation rate
Human skin fibroblasts [3]; 33 mg/L DO, DMEM w/10% FBS, 4 h, re-stimulated at 1, 2 and 3 hours
  ATP levels: 113.1 nm ATP/10^5 cells
Human skin fibroblasts [3]; 33 mg/L dissolved oxygen, four hourly stimulations
  levels of ATP: 113.1±10.1 nM ATP/10^5 live cells
